In publication PMC4519859, “Synthesis and Biological Evaluation of Novel Dehydroabietic Acid Derivatives Conjugated with Acyl-Thiourea Peptide Moiety as Antitumor Agents” (International Journal of Molecular Sciences, 2015):

What was measured:
[1] = system: SK-OV-3; experiment: MTT cytotoxicity assay, SK-OV-3; assay type: cell-based; details: Homo sapiens, 48 h, mean ± SD, three independent experiments
[2] = system: HeLa cells; experiment: TUNEL assay; assay type: cell-based, human; details: 10 μM, 12 and 24 h
Description: To further define the mechanism of cell death caused by compound 9n, HeLa cells were treated with compound 9n at 10 μM from 12 to 24 h and the DNA fragmentation was measured by the TUNEL assay. TUNEL (terminal-deoxynucleotidyl transferase meditated nick end labeling) is a common method for identifying apoptotic cells in situ by detecting DNA fragmentation. When the genomic DNA is broken, the exposed 3ʹ-OH at the end of deoxynucleotide transfer as the catalytic plus green fluorescent probes fluorescein (FITC) labeled dUTP, which can be detected by fluorescence microscopy or flow cytometry, as indicated by a green color (in the web version). The results are illustrated in Figure 4. […] The results were in good agreement with the previous experiments.
The TUNEL method was performed to label the 3′-end of fragmented DNA of the apoptotic HeLa cells. The cells treated as indicated were fixed with 4% paraformaldehyde phosphate buffer saline, rinsed with PBS, then permeabilized by 0.1% Triton X-100 for FITC end-labeling the fragmented DNA of the apoptotic HeLa cells using TUNEL cell (Beyotime, Jiangsu, China) apoptosis detection kit. The FITC-labeled TUNEL-positive cells were imaged under a fluorescent microscopy by using 488 nm excitation and 530 nm emission.

[3] = system: caspase-3; experiment: Caspase-3 activation assay; assay type: cell-based, human; details: HeLa, versus control, 3 to 24 h
Description: It is well known that an increase of intracellular ROS can lead to apoptosis. […] Caspases are a family of cysteinyl aspartate specific proteases involved in apoptosis and are dichotomized to groups of initiators (caspases 8, 9 and 10) and executioners (caspases 3, 6 and 7). Caspase-3 is able to directly degrade multiple substrates including structural and regulatory proteins. Some small molecules have been developed to be selective activators of Caspase-3 [30]. Thus, we investigated whether caspase-3 was activated when HeLa cells were exposed to compound 9n.

[4] = system: HeLa cells; experiment: Cell cycle distribution by PI flow cytometry; assay type: cell-based, human; details: 10, 15 μM, 48 h
Description: Many anticancer drugs interact with cells leading to cell growth arrest. To determine the possible role of cell cycle arrest in DHAA derivative induced growth inhibition, HeLa cells were treated with different concentrations of compound 9n. Cell cycle distribution was investigated by flow cytometric analysis after staining of the DNA with propidium iodide (PI).
General procedure cell cycle: HeLa cells were maintained in Dulbecco’s modified Eagle’s medium with 10% fetal calf serum in 5% CO2 at 37 °C. Cells were harvested by trypsinization and rinsed with PBS. After centrifugation, the pellet (10^5–10^6 cells) was suspended in 1 mL of PBS and kept on ice for 5 min. The cell suspension was then fixed by the drop-wise addition of 9 mL precooled (4 °C) 75% ethanol with violent shaking. Fixed samples were kept at 4 °C until use. For staining, cells were centrifuged, resuspended in PBS, digested with 500 μL of RNase A (250 mg/mL), and treated with 25 μL of propidium iodide (PI) (0.15 mM), then incubated for 30 min at 4 °C. PI-positive cells were counted with a FACScan Fluorescence-activated cell sorter (FACS). The population of cells in each cell-cycle phase was determined using Cell Modi FIT software (Becton Dickinson).

[5] = system: HL-7702; experiment: MTT cytotoxicity assay, HL-7702 normal cells; assay type: cell-based; details: L02, 48 h, normal human cells, mean ± SD, three independent experiments
[6] = system: HeLa cells; experiment: Hoechst 33258 staining; assay type: cell-based, human; details: 10 μM, 12 and 24 h
Description: Hoechst 33258 which stains the cell nucleus, is a membrane permeable dye with blue fluorescence. Live cells with uniformly light blue nuclei were obviously detected under the fluorescence microscope after treatment with Hoechst 33258 whereas apoptotic cells had bright blue nuclei due to karyopyknosis and chromatin condensation. However, the nuclei of dead cells could not be stained. HeLa cells treated with compound 9n at 10 μM from 12 to 24 h were stained with Hoechst 33258. HeLa cells not treated with compound 9n were used as control for 24 h.
General procedure for Hoechst 33258 staining: cells grown on a sterile cover slip in six-well tissue culture plates were treated with compounds for a certain range of time. The culture medium containing compounds was removed, and the cells were fixed in 4% paraformaldehyde for 10 min. After being washed twice with PBS, the cells were stained with 0.5 mL of Hoechst 33258 (Beyotime, Jiangsu, China) for 5 min and then again washed twice with PBS. The stained nuclei were observed under a Nikon ECLIPSETE2000-S fluorescence microscope using 350 nm excitation and 460 nm emission.

[7] = system: MGC-803; experiment: MTT cytotoxicity assay, MGC-803; assay type: cell-based; details: Homo sapiens, 48 h, mean ± SD, three independent experiments
[8] = system: HeLa; experiment: MTT cytotoxicity assay, HeLa; assay type: cell-based; details: Homo sapiens, 48 h, mean ± SD, three independent experiments
[9] = system: HeLa cells; experiment: ROS generation assay (DCF-DA); assay type: cell-based, human; details: 10, 15 μM, 12 h
Description: Mitochondria have also been implicated as a source of ROS during apoptosis. […] We herein studied whether the loss of mitochondrial transmembrane potential resulting in the generation of ROS measured as described in our previous papers , using the fluorescent probe 2,7-dichlorofluorescein diacetate (DCF-DA) determined by fluorescence microscopy. […] Calcium has long been recognized as a significant participant in cell apoptosis. Therefore, we investigated whether compound 9n inducing cell death was involved in the production of Ca^2+. To investigate the effect of compound 9n on calcium release, HeLa cells treated with compound 9n at 10 μM for 24 h were loaded with the Ca^2+ indicator Fluo-3-acetoxymethyl-ester (Fluo-3/AM, 5 µM; Beyotime, Jiangsu, China).

CC(C)c1ccc2c(c1)CCC1[C@](C)(C(=O)NC(=S)N[C@H](Cc3ccccc3)C(=O)Nc3ccccn3)CCC[C@]21C (stereo partly drawn) [Compound 9n, (1R,4aS)-7-Isopropyl-1,4a-dimethyl-N-(((R)-1-oxo-3-phenyl-1-(pyridin-2-ylamino)propan-2-yl)carbamothioyl)-1,2,3,4,4a,9,10,10a-octahydrophenanthrene-1-carboxamide]
IC50 [1]: 19.6 ± 1.87 µM
DNA fragmentation by TUNEL [2]: significantly induced apoptosis
caspase-3 activity [3]: significant increase in the activity of caspase-3
cell cycle arrest [4]: mainly arrested HeLa cells in the S stage
IC50 [5]: 39.6 ± 1.47 µM
apoptosis by Hoechst 33258 staining [6]: typical apoptotic morphology
IC50 [7]: 16.9 ± 1.56 µM
IC50 [8]: 6.58 ± 1.11 µM
ROS level [9]: induced an increase of the ROS level
